Measurements: the supplement of paper PMC10307832

Tests used:
Assay in all cases: relative viability (nuclei count vs DMSO), 5 days (fraction); higher = more cells survive
BI-2536 + Crizotinib = compound: CC[C@@H]1C(=O)N(C)c2cnc(Nc3ccc(C(=O)NC4CCN(C)CC4)cc3OC)nc2N1C1CCCC1 [BI-2536] + C[C@@H](Oc1cc(-c2cnn(C3CCNCC3)c2)cnc1N)c1c(Cl)ccc(F)c1Cl [Crizotinib] (partner 1 µM)
How it was run: (§1)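 Lung cancer cell lines were pin-tool dosed in 1536-well plates on the day after seeding, with either a lone drug or a fixed anchor-drug dose plus five library-drug doses (not always all listed) in √10 steps. Nuclei were counted on 4× images after 5 days. Relative viability is the ratio of treated-well to vehicle-well nuclei counts, with each value a median of duplicate plates.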

[1] = compound: CC1CC(=O)N(C2=CN=C(N=C2N1C3CCCC3)NC4=C(C=C(C=C4)C(=O)NC5CCN(CC5)C)OC)C [NPK76-II-72-1] + Cc1nc(NC(=O)N2CCC[C@H]2C(N)=O)sc1-c1ccnc(C(C)(C)C(F)(F)F)c1 [Alpelisib] (partner 2 µM)
How it was run: as §1

BI-2536 + Foretinib = compound: CC[C@@H]1C(=O)N(C)c2cnc(Nc3ccc(C(=O)NC4CCN(C)CC4)cc3OC)nc2N1C1CCCC1 [BI-2536] + COc1cc2c(Oc3ccc(NC(=O)C4(C(=O)Nc5ccc(F)cc5)CC4)cc3F)ccnc2cc1OCCCN1CCOCC1 [Foretinib] (partner 0.25 µM)
How it was run: as §1

[2] = compound: CC1CC(=O)N(C2=CN=C(N=C2N1C3CCCC3)NC4=C(C=C(C=C4)C(=O)NC5CCN(CC5)C)OC)C [NPK76-II-72-1] + Cc1nc(Nc2ncc(C(=O)Nc3c(C)cccc3Cl)s2)cc(N2CCN(CCO)CC2)n1 [Dasatinib] (partner 0.075 µM)
How it was run: as §1

Cell Line | relative viability (BI-2536 + Crizotinib; first compound 0.01 µM) | relative viability (BI-2536 + Crizotinib; first compound 0.03162 µM) | relative viability (BI-2536 + Crizotinib; first compound 0.1 µM) | relative viability (BI-2536 + Crizotinib; first compound 0.3162 µM) | relative viability (BI-2536 + Crizotinib; first compound 1 µM) | relative viability ([1]; first compound 0.01 µM) | relative viability ([1]; first compound 0.03162 µM) | relative viability ([1]; first compound 0.1 µM) | relative viability ([1]; first compound 0.3162 µM) | relative viability ([1]; first compound 1 µM) | relative viability (BI-2536 + Foretinib; first compound 0.01 µM) | relative viability (BI-2536 + Foretinib; first compound 0.03162 µM) | relative viability (BI-2536 + Foretinib; first compound 0.1 µM) | relative viability (BI-2536 + Foretinib; first compound 0.3162 µM) | relative viability (BI-2536 + Foretinib; first compound 1 µM) | relative viability ([2]; first compound 0.01 µM) | relative viability ([2]; first compound 0.03162 µM) | relative viability ([2]; first compound 0.1 µM) | relative viability ([2]; first compound 0.3162 µM) | relative viability ([2]; first compound 1 µM)
HCC-44 | 0.786 | 0.703 | 0.444 | 0.139 | 0.0857 | 0.771 | 0.854 | 0.76 | 0.789 | 0.809 | – | – | – | – | – | – | – | – | – | –
HCC-78 | 0.368 | 0.288 | 0.347 | 0.18 | 0.159 | – | 0.402 | 0.334 | – | 0.337 | 0.554 | 0.505 | 0.534 | 0.402 | 0.226 | 0.384 | 0.363 | 0.449 | 0.346 | 0.402
HCC-366 | 0.528 | 0.49 | 0.369 | 0.0121 | 0.0124 | 0.401 | 0.443 | 0.456 | 0.435 | 0.452 | 0.959 | 0.847 | 0.225 | 0.0291 | 0.0206 | 0.593 | 0.633 | 0.638 | 0.606 | 0.635
HCC-827 | 0.926 | 0.968 | 0.714 | 0.328 | 0.305 | 0.942 | 0.931 | 0.988 | 1.02 | 1.09 | 1.03 | 0.958 | 0.86 | 0.254 | 0.234 | 0.252 | 0.319 | 0.435 | 0.388 | 0.37
HOP-62 | 0.986 | 0.949 | 0.78 | 0.134 | 0.12 | 1.08 | 0.999 | 0.871 | 1.1 | 1.12 | 1.19 | 1.05 | 0.767 | 0.182 | 0.146 | 0.585 | 0.653 | 0.633 | 0.672 | 0.64
IA-LM | 0.771 | 0.667 | 0.125 | 0.108 | 0.058 | 0.895 | 0.851 | 0.657 | 0.612 | 0.705 | 1.24 | 1.14 | 0.518 | 0.0587 | 0.0439 | – | – | – | – | –
LC-2-ad | 0.41 | 0.272 | 0.205 | 0.217 | 0.286 | 0.845 | 0.921 | 0.838 | 0.936 | 1 | 0.909 | 0.386 | 0.289 | 0.285 | 0.322 | 0.569 | 0.862 | 0.485 | 0.438 | 0.791
LCLC-97TM1 | 0.249 | 0.303 | 0.2 | 0.168 | 0.105 | – | 0.24 | 0.18 | 0.235 | 0.257 | 0.958 | 0.91 | 0.637 | 0.149 | 0.179 | 0.896 | 0.917 | 0.822 | 0.785 | 0.8
LCLC-103H | 1.11 | 0.986 | 1.08 | 0.39 | 0.154 | 0.929 | 0.928 | 1.07 | 0.925 | 0.993 | 0.802 | 0.854 | 0.618 | 0.161 | 0.153 | 0.418 | 0.442 | 0.404 | 0.535 | 0.447
LK-2 | 0.245 | 0.237 | 0.202 | 0.177 | 0.245 | 1 | 1.23 | 1.12 | – | 0.652 | 1.32 | 0.923 | 0.861 | 0.18 | 0.162 | 0.299 | 0.275 | 0.322 | 0.233 | 0.244
NCI-H522 | – | – | – | – | – | – | – | – | – | – | – | – | – | – | – | 0.77 | 0.887 | 1.09 | 0.86 | 0.828
NCI-H1299 | 0.946 | 0.808 | 0.663 | 0.266 | 0.224 | 1.09 | 1.07 | 1.03 | 1.05 | 1.06 | 1.15 | 1.09 | 0.773 | 0.308 | 0.242 | – | – | – | – | –
NCI-H1395 | – | – | – | – | – | 1.02 | 0.994 | 0.979 | 1.17 | 1.03 | 0.911 | 1.1 | 0.691 | 0.339 | 0.327 | 0.433 | 0.36 | 0.424 | 0.417 | 0.369
NCI-H1623 | – | – | – | – | – | – | – | – | – | – | 0.912 | 0.864 | 0.83 | 0.345 | 0.321 | 0.562 | 0.522 | 0.554 | 0.401 | 0.545
NCI-H1650 | 0.948 | 0.742 | 0.208 | 0.143 | 0.11 | – | – | – | – | – | 1.16 | 1.14 | 0.484 | 0.135 | 0.115 | 0.308 | 0.314 | 0.405 | 0.293 | 0.265
NCI-H1703 | 0.626 | – | 0.173 | 0.131 | 0.0732 | 0.316 | 0.343 | 0.35 | 0.314 | 0.4 | – | 0.296 | 0.191 | 0.152 | 0.14 | – | – | – | – | –
NCI-H1792 | 1.04 | 0.815 | 1.01 | 0.417 | 0.17 | 0.747 | 0.793 | 0.668 | 0.711 | 0.767 | – | – | – | – | – | 0.799 | – | 0.842 | 0.66 | 0.726
NCI-H1793 | – | – | – | – | – | 0.611 | 0.679 | 0.677 | 0.521 | 0.788 | 0.585 | 0.364 | 0.202 | 0.164 | 0.173 | 0.328 | 0.432 | 0.412 | 0.383 | 0.386
NCI-H2342 | – | – | – | – | – | – | – | – | – | – | 1.01 | 0.973 | 0.976 | 0.633 | 0.357 | 0.345 | 0.301 | 0.328 | 0.262 | 0.346
SW 900 | – | – | – | – | – | – | – | – | – | – | 0.775 | 0.8 | 0.983 | 0.2 | 0.138 | 0.496 | 0.574 | 0.378 | 0.78 | 0.572
